According to US20090325952A1, “PYRAZOLO[3,4-B]PYRIDINE COMPOUNDS, AND THEIR USE AS PDE4 INHIBITORS” (Glaxo Group Limited, priority 2006, published 2009):
Structures can show the parent of a compound that is named as a salt.

Test system: TNF-α (TNF-alpha) production in human PBMC (peripheral blood mononuclear cells)
Assay: Inhibition of TNF-alpha production in human PBMC assay (MSD technology)
Assay type: cell-based
Conditions: Homo sapiens, PBMC, LPS stimulated, measured and/or mean of n measurements, read-out: PBMC pIC50 (MSD assay), inhibition of TNF-α production (converted)
Experimental: A 96-well plate (96 MicroWell™ Plates Nunclon™Δ-High Flange Design, Fisher Scientific UK, Bishop Meadow Road, Loughborough LE 11 5 RG, Leicestershire, UK) is prepared by initially adding to column 1 ca. 10 mM of test compound dissolved in DMSO. […] The compound is further diluted with DMSO into columns 2 to 9 by 8 successive 3-fold dilutions using the Biomek® FX Laboratory Automation Workstation (Beckman Coulter, Inc., 4300 N. Harbor Boulevard, P.O. Box 3100, Fullerton, Calif. 92834-3100, USA). Column 10 is used as a DMSO negative control (High Signal, 0% response), whilst column 11, which contains 10 mM of the PDE4 inhibitor roflumilast, is used as a positive control (Low Signal, 100% response). About 1 μl (about 1 ul) of compound is transferred to the compound plate using the Biomek® FX.
PBMC cells (peripheral blood mononuclear cells) are prepared from heparinised human blood (using 1% v/v Heparin Sodium 10001 U/ml Endotoxin Free, Leo Laboratories Ltd., Cashel Road, Dublin 12. Ireland, Cat No: PL0043/0149) from normal volunteers using the Accuspin™ System-Histopaque®-1077 essentially (Sigma-Aldrich Company Ltd., The Old Brickyard New Rd, Gillingham, Dorset SP8 4XT, UK). About 20 ml of blood is overlaid onto 15 ml Histopaque® in Accuspin™ tubes. The tube is then centrifuged at about 800 g for ca. 20 minutes. The cells are collected from the interface, washed by centrifugation (ca. 1300 g, ca. 10 minutes) and resuspended in RPMI1640 medium (Low endotoxin RPMI1640 medium, Cat No: 31870-025, Invitrogen Corporation Invitrogen Ltd, 3 Fountain Drive, Inchinnan Business Park, Paisley PA4 9RF, UK) containing 10% foetal calf serum, 1% L-glutamine (Invitrogen Corporation, Cat No: 25030024) and 1% penicillin/streptomycin (Invitrogen Corporation, Cat No: 15140-122). Viable cells are counted by trypan blue staining and diluted to 1×10^6 viable cells/ml. About 50 μl (about 50 ul) of diluted cells and about 75 μl (about 75 ul) of LPS (ca. 1 ng/ml final; Sigma Cat No: L-6386) are added to the compound plate, which is then incubated at 37° C., 5% CO2, for 20 hours.
The supernatant is removed and the concentrations of TNF-α are determined by electrochemiluminescence assay using the Meso Scale Discovery (MSD) technology (Meso Scale Discovery, 9238 Gaither Road, Gaithersburg, Md. 20877, USA). See the “TNF-α (TNF-alpha) MSD Assay” described below for typical details.
For the following Examples, which are compounds of formula (I) or salts thereof, and generally when using the one of the above assays, or a generally similar or generally analogous assay, the measured and/or mean pIC50 values for inhibition of TNF-α (TNF-alpha) production in PBMCs are generally as follows (subject to a possibly-large variability or error):
Using the Biomek FX, 25 μl (25 ul) of MSD Human Serum Cytokine Assay Diluent (Meso Scale Discovery, 9238 Gaither Road, Gaithersburg, Md. 20877) is added to a 96-well High-Bind MSD plate pre-coated with anti-hTNF alpha capture antibody (MA6000) and then incubated for 24 hours at 4° C. to prevent non-specific binding. About 20 μl (ul) of supernatant from the PBMC plate or about 40 μl (ul) of supernatant from the whole blood (WB) plate are then transferred from columns 1-11 to columns 1-11 of the MSD plate using the Biomek FX. About 20 μl (ul) of TNF-α standard (Cat No. 210-TA; R&D Systems Inc., 614 McKinley Place NE, Minneapolis, Minn. 55413, USA) are added to column 12 of the MSD plate to generate a standard calibration curve (about 0 to 30000 pg/ml final).
For the Whole Blood assay, plates are washed after 2 hours shaking with a Skanwasher 300 version B (Skatron Instruments AS. PO Box 8, N-3401 Lier, Norway). About 40 μl (ul) of diluted sulfo-TAG antibody (ca. […] final) is added, the plates are shaken at room temperature for 1 hours, and the plates washed again as above. About 150 μl (ul) of Read Buffer T (2×) is added to the plates, which are then read on a MSD Sector 6000. […]

| SMILES | IC50 |
| --- | --- |
| CCc1nc2c(cnn2CC)c(NC2CCOCC2)c1CNC(=O)c1ccc(NC(=O)CCCCCCCN(C)CCO)cc1 [Example 1A1, N-{[1,6-Diethyl-4-(tetrahydro-2H-pyran-4-ylamino)-1H-pyrazolo[3,4-b]pyridin-5-yl]methyl}-4-({8-[(2-hydroxyethyl)(methyl)amino]octanoyl}amino)benzamide dihydrochloride] | ~501 pM |
| CCc1nc2c(cnn2CC)c(NC2CCOCC2)c1CNC(=O)c1ccc(CCCCOCCCCN(C)CCO)cc1 [Example 19, formate salt of N-{[1,6-diethyl-4-(tetrahydro-2H-pyran-4-ylamino)-1H-pyrazolo[3,4-b]pyridin-5-yl]methyl}-4-[4-({4-[(2-hydroxyethyl)(methyl)amino]butyl}oxy)butyl]benzamide] | ~251 pM |
| CCn1ncc2c(NC3CCOCC3)c(CNC(=O)c3ccc(NC(=O)CCCCCCCN(C)CCO)cc3)cnc21 [Example 26, Formate salt of N-{[1-ethyl-4-(tetrahydro-2H-pyran-4-ylamino)-1H-pyrazolo[3,4-b]pyridin-5-yl]methyl}-4-({8-[(2-hydroxyethyl)(methyl)amino]octanoyl}amino)benzamide] | ~15800 pM |

Same assay, conditions: LPS stimulated, measured and/or mean of n measurements

| SMILES | PBMC pIC50 (MSD assay), inhibition of TNF-α production |
| --- | --- |
| CCc1nc2c(cnn2CC)c(NC2CCOCC2)c1CNC(=O)c1ccc(NC(=O)CCCCCCCN(C)CCO)cc1 [Example 1B, N-{[1,6-diethyl-4-(tetrahydro-2H-pyran-4-ylamino)-1H-pyrazolo[3,4-b]pyridin-5-yl]methyl}-4-({8-[(2-hydroxyethyl)(methyl)amino]octanoyl}amino)benzamide] | about 9.2 (n = 29) |
| CCc1nc2c(cnn2CC)c(NC2CCN(C(N)=O)CC2)c1CNC(=O)c1ccc(NC(=O)CCCCCCCN(C)CCO)cc1.O=C(O)C(F)(F)F [Example 9, 4-({1,6-diethyl-5-[({[4-({8-[(2-hydroxyethyl)(methyl)amino]octanoyl}amino)phenyl]carbonyl}amino)methyl]-1H-pyrazolo[3,4-b]pyridin-4-yl}amino)-1-piperidinecarboxamide trifluoroacetate (salt)] | about 8.4 (n = 4) |
| CCc1nc2c(cnn2CC)c(NC2CCN(C(N)=O)CC2)c1CNC(=O)c1ccc(CCCCOCCCCN2CCOCC2)cc1 [Example 23A, 4-({1,6-diethyl-5-[({[4-(4-{[4-(4-morpholinyl)butyl]oxy}butyl)phenyl]carbonyl}amino)methyl]-1H-pyrazolo[3,4-b]pyridin-4-yl}amino)-1-piperidinecarboxamide] | about 9.1 (n = 8) |
